Consider 1 compound from patent EP4790048A1, “S1PR4 REGULATOR COMPOUND FOR AUTOIMMUNE DISEASE TREATMENT AND APPLICATION THEREOF” (Shengyuan Zetong (Shanghai) Pharmaceutical Co., Ltd, priority 2023, dated 2025).

Common to all, as to assay type: cell-based
One assay deals with T1, hS1P4 (Homo sapiens, UniProt O95977).
T1 construct: expressed in transfected cells; host or cells: CHO
T1 sequence (O95977 1-384): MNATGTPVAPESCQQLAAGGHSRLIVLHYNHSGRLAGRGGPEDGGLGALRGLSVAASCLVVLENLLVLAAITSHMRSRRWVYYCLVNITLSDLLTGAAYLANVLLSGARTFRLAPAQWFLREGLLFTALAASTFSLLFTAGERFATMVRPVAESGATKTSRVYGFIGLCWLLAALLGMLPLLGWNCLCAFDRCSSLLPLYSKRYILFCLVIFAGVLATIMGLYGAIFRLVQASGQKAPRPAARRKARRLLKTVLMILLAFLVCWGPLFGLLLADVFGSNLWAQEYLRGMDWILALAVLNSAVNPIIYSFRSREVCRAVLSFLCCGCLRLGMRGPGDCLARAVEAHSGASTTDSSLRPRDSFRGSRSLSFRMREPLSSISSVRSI
Briefly: Tango β-arrestin recruitment luciferase assay, Tango-hS1P4-CHO. As to conditions: S1PR4; Tango-S1PR4-CHO-K1 cells; mean ± SD; read-out: EC50. The gist of the method: (§1)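 CHO Tango cells (receptor–V2 tail–TEV/tTA fusion, β-arrestin 2–TEV, UAS-luciferase reporter) plated overnight (20 h) at 37°C, then treated 20 h with compounds, top final 45 µM, 9 five-fold dilutions, triplicates. Luciferase luminescence read; BAF-312 positive control at 1 µM (S1PR1) or 25 µM (S1PR4).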
For orientation: Activated receptors often draw arrestin, which recruitment assays turn into a signal.

A further assay has as its target T2, hS1P1 (Homo sapiens, UniProt P21453).
T2 construct: expressed in transfected cells; host or cells: CHO
Briefly: Tango β-arrestin recruitment luciferase assay, Tango-hS1P1-CHO. The note with it: S1PR1; Tango-S1PR1-CHO-K1 cells; mean ± SD; read-out: EC50. In a few lines: as §1

Another assay addresses T3, S1PR3 (Homo sapiens, UniProt Q99500).
T3 construct: expressed in transfected cells
Briefly: β-arrestin recruitment, PathHunter CHO-K1-S1PR3 cells. As to conditions: mean ± SD, read-out: EC50.

In the next assay the target is T4, S1PR4 (Homo sapiens, UniProt O95977).
T4 construct: expressed in transfected cells; host or cells: 293T
T4 sequence (O95977 1-384): T1 sequence (O95977 1-384)
The experiment in a line: S1PR4 internalization and recovery test in S1PR4-293T cells. The note with it: 1 µM, 37 °C, 1.5 hours; detected immediately, 5 hours or 20 hours after treatment. As for the experimental part:
Therefore, the recovery degree of S1PR4 after internalization caused by Compound 30 was evaluated, and the recovery effect following receptor internalization caused by Compound 30 was assessed in cells with high S1PR4 expression.

T2 sequence (P21453 whole entry): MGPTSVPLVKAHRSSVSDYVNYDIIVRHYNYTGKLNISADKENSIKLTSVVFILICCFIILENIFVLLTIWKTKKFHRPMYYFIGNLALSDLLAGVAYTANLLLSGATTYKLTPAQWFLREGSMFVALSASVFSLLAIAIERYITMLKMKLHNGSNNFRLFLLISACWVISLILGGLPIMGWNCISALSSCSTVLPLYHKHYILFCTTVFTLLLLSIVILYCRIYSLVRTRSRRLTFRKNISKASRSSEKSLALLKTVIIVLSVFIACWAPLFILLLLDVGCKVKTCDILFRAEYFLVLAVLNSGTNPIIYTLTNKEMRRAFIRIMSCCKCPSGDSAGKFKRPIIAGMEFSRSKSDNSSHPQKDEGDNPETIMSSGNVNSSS
T3 sequence (Q99500 whole entry, species assumed): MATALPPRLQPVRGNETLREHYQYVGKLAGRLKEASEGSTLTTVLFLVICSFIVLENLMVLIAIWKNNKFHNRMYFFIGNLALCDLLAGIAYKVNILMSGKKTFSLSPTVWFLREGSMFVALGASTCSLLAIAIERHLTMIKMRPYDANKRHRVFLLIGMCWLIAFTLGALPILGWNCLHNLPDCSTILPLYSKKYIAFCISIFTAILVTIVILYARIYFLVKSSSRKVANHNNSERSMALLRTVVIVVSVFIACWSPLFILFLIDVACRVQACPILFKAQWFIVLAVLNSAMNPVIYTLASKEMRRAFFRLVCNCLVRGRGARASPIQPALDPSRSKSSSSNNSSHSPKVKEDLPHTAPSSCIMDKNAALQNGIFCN

In general, EC50 refers to the concentration that produces a half-maximal response. Regarding `CCCCCCCCCCCCC/C=C/[C@@H](O)[C@@H](N)COP(=O)(O)O` [Compound S1P, Sphingosine-1-phosphate, reference compound], the half-maximal effective concentration (EC50) on hS1P4 came out at 0.1 ± 0.0219 µM; on hS1P1, 0.00852 ± 0.00106 µM; at S1PR3, 0.0206 ± 0.00337 µM. Besides, the “S1PR4 internalization (expression of S1PR4 receptor on the cell surface)” value at S1PR4 is listed as “can induce S1PR4 internalization, with receptor expression recovering after 20 hours”.
